Read-outs that look alike come from different tables or passages of the source.
Experiments:
phosphor-Axl = phosphor-Axl (Homo sapiens (Human), UniProt P30530); test: TAM Kinase Assay (HTRF), phosphor-Axl; assay type: biochemical; conditions: read-out: Phospho-Axl IC50;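 also: test enzyme was recombinant Axl protein, pre-activated by autophosphorylation with ATP and MgCl2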
Description: Autophosphorylation of Axl was carried out by incubating the recombinant Axl protein (Life Technologies, PV4275) in buffer containing 50 mM Tris, pH7.5, 0.2 mg/ml Axl, 5 mM ATP, 20 mM MgCl2 and 2 mM DTT at room temperature for 1 hour.
(§1) 0.1 ul test compounds dissolved in DMSO were transferred from compound plates to white 384-well assay plates (Greiner [sequence] plates). […] The plate was protected from light and incubated at room temperature for 60 min.

Tyro3 = Tyro3 (Homo sapiens (Human), UniProt Q06418); test: TAM Kinase Assay (HTRF), Tyro3; assay type: biochemical; conditions: 0.366 nM Tyro3, HTRF, 60 min room temperature; read-out: Tyro3IC50
Sequence of Tyro3 (Q06418 41-890): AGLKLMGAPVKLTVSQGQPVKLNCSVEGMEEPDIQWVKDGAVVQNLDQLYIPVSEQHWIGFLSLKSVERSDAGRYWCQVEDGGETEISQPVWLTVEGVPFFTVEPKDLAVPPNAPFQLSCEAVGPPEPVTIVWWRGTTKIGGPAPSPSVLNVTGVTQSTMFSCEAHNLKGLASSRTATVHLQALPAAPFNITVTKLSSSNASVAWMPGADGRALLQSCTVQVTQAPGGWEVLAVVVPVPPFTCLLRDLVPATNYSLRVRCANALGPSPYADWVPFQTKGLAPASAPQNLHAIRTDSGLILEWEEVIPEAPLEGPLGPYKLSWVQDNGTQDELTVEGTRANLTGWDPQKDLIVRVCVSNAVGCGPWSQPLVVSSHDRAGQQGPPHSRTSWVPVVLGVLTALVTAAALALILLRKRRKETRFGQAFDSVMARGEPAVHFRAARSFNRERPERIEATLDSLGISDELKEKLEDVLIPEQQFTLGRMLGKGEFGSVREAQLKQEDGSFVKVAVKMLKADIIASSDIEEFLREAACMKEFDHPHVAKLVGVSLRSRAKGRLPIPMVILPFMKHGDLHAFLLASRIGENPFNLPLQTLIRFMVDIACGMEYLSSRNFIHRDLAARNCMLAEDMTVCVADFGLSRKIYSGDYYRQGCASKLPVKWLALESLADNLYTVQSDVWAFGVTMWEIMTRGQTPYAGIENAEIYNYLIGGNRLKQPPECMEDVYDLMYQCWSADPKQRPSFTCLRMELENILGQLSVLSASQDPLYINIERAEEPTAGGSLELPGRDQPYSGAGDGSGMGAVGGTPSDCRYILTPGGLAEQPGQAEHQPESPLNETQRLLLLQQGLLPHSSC
Description: as §1

c-Mer = c-Mer (Homo sapiens (Human), UniProt Q12866); test: TAM Kinase Assay (HTRF), c-Mer; assay type: biochemical
Description: as §1

PI3Kδ = PI3Kδ (Homo sapiens (Human), UniProt O00329); conditions: cited from earlier work
JAK2 = JAK2 (Homo sapiens (Human), UniProt O60674); conditions: selectivity ratio, IC50 at 1 mM ATP; cited from earlier work
Sequence of JAK2 (O60674 whole entry, species assumed): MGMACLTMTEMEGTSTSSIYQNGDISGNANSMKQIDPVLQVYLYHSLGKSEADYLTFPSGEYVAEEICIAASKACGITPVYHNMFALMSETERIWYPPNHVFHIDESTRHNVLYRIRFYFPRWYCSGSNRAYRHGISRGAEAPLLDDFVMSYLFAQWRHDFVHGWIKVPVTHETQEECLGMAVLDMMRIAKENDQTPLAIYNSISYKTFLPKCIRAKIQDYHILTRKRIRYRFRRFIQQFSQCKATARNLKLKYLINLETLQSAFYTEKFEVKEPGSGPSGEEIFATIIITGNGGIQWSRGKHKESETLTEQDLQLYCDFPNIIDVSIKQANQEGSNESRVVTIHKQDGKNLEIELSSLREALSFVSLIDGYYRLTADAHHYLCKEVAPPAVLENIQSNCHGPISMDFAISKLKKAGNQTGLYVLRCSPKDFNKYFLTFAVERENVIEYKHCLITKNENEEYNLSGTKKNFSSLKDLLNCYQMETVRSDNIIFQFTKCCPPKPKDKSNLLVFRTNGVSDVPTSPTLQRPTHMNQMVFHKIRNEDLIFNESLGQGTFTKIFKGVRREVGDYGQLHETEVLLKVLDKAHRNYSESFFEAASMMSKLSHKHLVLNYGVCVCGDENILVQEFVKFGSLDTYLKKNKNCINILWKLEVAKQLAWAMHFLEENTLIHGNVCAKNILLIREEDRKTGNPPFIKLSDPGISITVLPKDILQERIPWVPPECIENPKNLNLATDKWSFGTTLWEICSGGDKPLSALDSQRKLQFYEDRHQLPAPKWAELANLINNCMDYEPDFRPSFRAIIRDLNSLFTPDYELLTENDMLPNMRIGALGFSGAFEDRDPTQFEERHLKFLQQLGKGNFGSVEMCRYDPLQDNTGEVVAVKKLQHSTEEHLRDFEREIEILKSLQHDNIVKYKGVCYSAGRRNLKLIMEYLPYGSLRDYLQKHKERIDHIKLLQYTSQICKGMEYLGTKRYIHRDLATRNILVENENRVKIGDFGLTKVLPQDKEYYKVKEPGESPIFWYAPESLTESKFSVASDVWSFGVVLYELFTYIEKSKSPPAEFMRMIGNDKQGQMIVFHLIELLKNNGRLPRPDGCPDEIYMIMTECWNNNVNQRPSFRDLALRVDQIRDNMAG

JAK1 = JAK1 (Homo sapiens (Human), UniProt P23458); conditions: cited from earlier work
Sequence of JAK1 (P23458 whole entry, species assumed): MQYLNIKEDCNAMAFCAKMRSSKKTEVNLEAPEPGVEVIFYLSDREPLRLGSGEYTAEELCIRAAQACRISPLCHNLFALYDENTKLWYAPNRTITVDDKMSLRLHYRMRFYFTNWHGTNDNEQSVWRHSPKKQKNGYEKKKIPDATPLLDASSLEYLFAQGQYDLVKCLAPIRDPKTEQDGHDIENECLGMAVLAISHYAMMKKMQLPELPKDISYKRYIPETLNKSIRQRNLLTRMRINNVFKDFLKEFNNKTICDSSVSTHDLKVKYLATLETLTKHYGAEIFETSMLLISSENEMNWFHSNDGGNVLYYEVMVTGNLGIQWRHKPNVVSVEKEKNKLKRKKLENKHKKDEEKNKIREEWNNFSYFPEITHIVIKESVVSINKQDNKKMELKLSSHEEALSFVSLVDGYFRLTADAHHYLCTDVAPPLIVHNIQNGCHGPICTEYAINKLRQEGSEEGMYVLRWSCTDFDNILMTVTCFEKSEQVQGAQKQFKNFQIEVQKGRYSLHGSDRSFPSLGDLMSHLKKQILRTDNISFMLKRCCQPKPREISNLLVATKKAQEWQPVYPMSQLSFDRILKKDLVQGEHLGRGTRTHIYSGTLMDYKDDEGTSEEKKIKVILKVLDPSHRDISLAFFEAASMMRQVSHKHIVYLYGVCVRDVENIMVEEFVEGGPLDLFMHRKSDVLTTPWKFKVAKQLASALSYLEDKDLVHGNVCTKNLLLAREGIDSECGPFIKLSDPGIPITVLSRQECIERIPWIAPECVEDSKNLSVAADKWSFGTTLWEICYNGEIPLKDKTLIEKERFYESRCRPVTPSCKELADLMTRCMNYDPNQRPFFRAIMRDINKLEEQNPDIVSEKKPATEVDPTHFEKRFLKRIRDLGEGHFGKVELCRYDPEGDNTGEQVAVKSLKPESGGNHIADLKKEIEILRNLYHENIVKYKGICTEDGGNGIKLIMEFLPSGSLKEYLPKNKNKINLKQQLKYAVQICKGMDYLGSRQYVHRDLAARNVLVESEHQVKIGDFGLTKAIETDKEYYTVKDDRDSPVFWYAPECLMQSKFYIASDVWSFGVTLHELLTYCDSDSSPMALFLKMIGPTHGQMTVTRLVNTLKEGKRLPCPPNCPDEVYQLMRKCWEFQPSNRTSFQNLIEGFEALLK

[1] = system: tumor models with different histologies; conditions: cited from earlier work
NK cells = conditions: cited from earlier work
[2] = 5.1 nM phosphor-Axl, HTRF, 60 min room temperature
[3] = 0.0625 nM c-Mer, HTRF, 60 min room temperature, read-out: c-Mer IC50

Sequence of phosphor-Axl (P30530 26-894): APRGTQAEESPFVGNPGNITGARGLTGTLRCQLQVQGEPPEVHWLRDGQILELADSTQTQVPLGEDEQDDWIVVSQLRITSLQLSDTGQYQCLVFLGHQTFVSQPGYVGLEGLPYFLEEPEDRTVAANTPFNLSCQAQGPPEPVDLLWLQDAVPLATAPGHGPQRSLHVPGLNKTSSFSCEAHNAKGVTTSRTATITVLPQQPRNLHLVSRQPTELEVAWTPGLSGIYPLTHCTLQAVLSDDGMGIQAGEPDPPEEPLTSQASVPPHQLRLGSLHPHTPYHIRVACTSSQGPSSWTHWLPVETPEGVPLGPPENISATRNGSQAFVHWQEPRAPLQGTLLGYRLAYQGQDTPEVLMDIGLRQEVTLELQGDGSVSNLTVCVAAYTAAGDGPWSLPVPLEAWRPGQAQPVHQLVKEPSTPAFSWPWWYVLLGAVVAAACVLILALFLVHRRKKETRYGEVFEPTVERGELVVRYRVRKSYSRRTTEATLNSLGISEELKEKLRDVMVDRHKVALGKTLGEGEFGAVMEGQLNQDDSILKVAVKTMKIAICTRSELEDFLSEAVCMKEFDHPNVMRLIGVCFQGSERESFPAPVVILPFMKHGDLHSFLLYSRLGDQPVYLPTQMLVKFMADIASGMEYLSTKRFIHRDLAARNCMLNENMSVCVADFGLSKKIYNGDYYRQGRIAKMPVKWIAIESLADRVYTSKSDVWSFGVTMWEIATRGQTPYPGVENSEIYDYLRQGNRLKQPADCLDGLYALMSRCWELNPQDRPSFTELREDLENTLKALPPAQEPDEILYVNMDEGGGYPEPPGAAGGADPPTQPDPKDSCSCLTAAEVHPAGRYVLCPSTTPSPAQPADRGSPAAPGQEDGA

| Structure (SMILES) | IC50 (phosphor-Axl; [2]) | IC50 (Tyro3) | IC50 (c-Mer; [3]) | further results |
| --- | --- | --- | --- | --- |
| O=C(NCC1(c2cccc(-c3ncnc4[nH]ccc34)c2)Cc2ccccc2C1)C1CCCC1 [Example 27, N-({2-[3-(7H-Pyrrolo[2,3-d]pyrimidin-4-yl)phenyl]-2,3-dihydro-1H-inden-2-yl}methyl)cyclopentanecarboxamide] | < 500 nM | > 3000 nM |  |  |
| CC(=O)NCC1(c2cccc(-c3ncnc4[nH]ccc34)c2)Cc2ccccc2C1 [Example 16, N-({2-[3-(7H-Pyrrolo[2,3-d]pyrimidin-4-yl)phenyl]-2,3-dihydro-1H-inden-2-yl}methyl)acetamide] | < 500 nM | > 3000 nM | < 500 nM |  |
| NCC1(c2cccc(-c3ncnc4[nH]ccc34)n2)Cc2ccccc2C1 [Example 2, 1-{2-[6-(7H-Pyrrolo[2,3-d]pyrimidin-4-yl)pyridin-2-yl]-2,3-dihydro-1H-inden-2-yl}methanamine] | 1000 to 3000 nM | > 3000 nM | 1000 to 3000 nM |  |
| NCC1(c2cccc(-c3ncnc4[nH]ccc34)c2)Cc2ccccc2C1 [Example 11, 1-{2-[3-(7H-Pyrrolo[2,3-d]pyrimidin-4-yl)phenyl]-2,3-dihydro-1H-inden-2-yl}methanamine] | < 500 nM | 1000 to 3000 nM | < 500 nM |  |
| O=C(NCC1(c2cccc(-c3ncnc4[nH]ccc34)c2)Cc2ccccc2C1)c1ccco1 [Example 34, N-({2-[3-(7H-Pyrrolo[2,3-d]pyrimidin-4-yl)phenyl]-2,3-dihydro-1H-inden-2-yl}methyl)-2-furamide] |  | > 3000 nM |  | IC50 (PI3Kδ): 50 to 100 nM |
| COCC1(c2cccc(-c3ncnc4[nH]ccc34)c2)Cc2ccccc2C1 [Example 25, 4-{3-[2-(Methoxymethyl)-2,3-dihydro-1H-inden-2-yl]phenyl}-7H-pyrrolo[2,3-d]pyrimidine] | 1000 to 3000 nM | > 3000 nM | > 3000 nM |  |
| OCC1(c2cccc(-c3ncnc4[nH]ccc34)c2)Cc2ccccc2C1 [Example 12, {2-[3-(7H-Pyrrolo[2,3-d]pyrimidin-4-yl)phenyl]-2,3-dihydro-1H-inden-2-yl}methanol] | < 500 nM | > 3000 nM | < 500 nM |  |
| NCC1(c2cccc(-c3ncnc4[nH]ccc34)c2)Cc2cccnc2C1 (stereo not drawn) [Example 6, 1-{6-[3-(7H-Pyrrolo[2,3-d]pyrimidin-4-yl)phenyl]-6,7-dihydro-5H-cyclopenta[b]pyridin-6-yl}methanamine] | < 500 nM | > 3000 nM | < 500 nM |  |
| NCC1(c2cc(-c3ncnc4[nH]ccc34)cc(Cl)n2)Cc2ccccc2C1 [Example 7, 1-{2-[6-Chloro-4-(7H-pyrrolo[2,3-d]pyrimidin-4-yl)pyridin-2-yl]-2,3-dihydro-1H-inden-2-yl}methanamine] | < 500 nM | > 3000 nM | < 500 nM |  |
| CNCC1(c2cccc(-c3ncnc4[nH]ccc34)c2)Cc2ccccc2C1 [Example 24, N-Methyl-1-{2-[3-(7H-pyrrolo[2,3-d]pyrimidin-4-yl)phenyl]-2,3-dihydro-1H-inden-2-yl}methanamine] | < 500 nM | > 3000 nM | < 500 nM |  |
| N#CCC1(n2cc(-c3ncnc4[nH]ccc34)cn2)CN(C2CCN(C(=O)c3ccnc(C(F)(F)F)n3)CC2)C1 [Compound 9, [3-[4-(7H-pyrrolo[2,3-d]pyrimidin-4-yl)-1H-pyrazol-1-yl]-1-(1-{[2-(trifluoromethyl)pyrimidin-4-yl]carbonyl}piperidin-4-yl)azetidin-3-yl]acetonitrile, reference compound] |  |  |  | JAK2/JAK1 (JAK2): >10 |
| CS(=O)(=O)NCC1(c2cccc(-c3ncnc4[nH]ccc34)c2)Cc2ccccc2C1 [Example 21, N-({2-[3-(7H-Pyrrolo[2,3-d]pyrimidin-4-yl)phenyl]-2,3-dihydro-1H-inden-2-yl}methyl)methanesulfonamide] | 500 to 1000 nM | > 3000 nM | 1000 to 3000 nM |  |
| O=C(NCC1(c2cccc(-c3ncnc4[nH]ccc34)c2)Cc2ccccc2C1)C1CC1 [Example 18, N-({2-[3-(7H-Pyrrolo[2,3-d]pyrimidin-4-yl)phenyl]-2,3-dihydro-1H-inden-2-yl}methyl)cyclopropanecarboxamide] | < 500 nM | > 3000 nM | < 500 nM |  |
| NCC1(c2cncc(-c3ncnc4[nH]ccc34)c2)Cc2ccccc2C1 [Example 1, 1-{2-[5-(7H-Pyrrolo[2,3-d]pyrimidin-4-yl)pyridin-3-yl]-2,3-dihydro-1H-inden-2-yl}methanamine] | < 500 nM | > 3000 nM | < 500 nM |  |
| COC(=O)NCC1(c2cccc(-c3ncnc4[nH]ccc34)c2)Cc2ccccc2C1 [Example 22, Methyl ({2-[3-(7H-pyrrolo[2,3-d]pyrimidin-4-yl)phenyl]-2,3-dihydro-1H-inden-2-yl}methyl)carbamate] | < 500 nM | > 3000 nM | < 500 nM |  |
| O=C(NCC1(c2cccc(-c3ncnc4[nH]ccc34)c2)Cc2ccccc2C1)c1cccs1 [Example 28] | 1000 to 3000 nM | > 3000 nM | > 3000 nM |  |
| O=C(NCC1(c2cccc(-c3ncnc4[nH]ccc34)c2)Cc2ccccc2C1)c1ccno1 [Example 31, N-({2-[3-(7H-Pyrrolo[2,3-d]pyrimidin-4-yl)phenyl]-2,3-dihydro-1H-inden-2-yl}methyl)isoxazole-5-carboxamide] | > 3000 nM | > 3000 nM | > 3000 nM |  |
| FC(F)C1(c2cccc(-c3ncnc4[nH]ccc34)c2)Cc2ccccc2C1 [Example 20, 4-{3-[2-(Difluoromethyl)-2,3-dihydro-1H-inden-2-yl]phenyl}-7H-pyrrolo[2,3-d]pyrimidine] | > 3000 nM | > 3000 nM | > 3000 nM |  |
| NCC1(c2cccc(-c3ncnc4[nH]ccc34)c2)Cc2ccncc2C1 (stereo not drawn) [Example 5, 1-{6-[3-(7H-Pyrrolo[2,3-d]pyrimidin-4-yl)phenyl]-6,7-dihydro-5H-cyclopenta[c]pyridin-6-yl}methanamine] | < 500 nM | 1000 to 3000 nM | < 500 nM |  |
| CC(C)C(=O)NCC1(c2cccc(-c3ncnc4[nH]ccc34)c2)Cc2ccccc2C1 [Example 17, 2-Methyl-N-({2-[3-(7H-pyrrolo[2,3-d]pyrimidin-4-yl)phenyl]-2,3-dihydro-1H-inden-2-yl}methyl)propanamide] | < 500 nM | > 3000 nM | < 500 nM |  |
| O=C(NCC1(c2cccc(-c3ncnc4[nH]ccc34)c2)Cc2ccccc2C1)C1CCC1 [Example 26, N-({2-[3-(7H-Pyrrolo[2,3-d]pyrimidin-4-yl)phenyl]-2,3-dihydro-1H-inden-2-yl}methyl)cyclobutanecarboxamide] | < 500 nM | > 3000 nM |  | JAK2/JAK1 (JAK2): >10; IC50 (JAK1): < 10 nM |
| CC(=O)NCC1(c2cccc(-c3ncnc4[nH]ccc34)c2)Cc2ccncc2C1 (stereo not drawn) [Example 10, N-({6-[3-(7H-Pyrrolo[2,3-d]pyrimidin-4-yl)phenyl]-6,7-dihydro-5H-cyclopenta[c]pyridin-6-yl}methyl)acetamide] | 1000 to 3000 nM | > 3000 nM |  |  |
| Cn1cc(C(=O)NCC2(c3cccc(-c4ncnc5[nH]ccc45)c3)Cc3ccccc3C2)cn1 [Example 33, 1-Methyl-N-({2-[3-(7H-pyrrolo[2,3-d]pyrimidin-4-yl)phenyl]-2,3-dihydro-1H-inden-2-yl}methyl)-1H-pyrazole-4-carboxamide] |  | > 3000 nM |  | IC50 (phosphor-Axl): > 3000 nM; IC50 (c-Mer): > 3000 nM |
| CC(=O)NCC1(c2cc(-c3ncnc4[nH]ccc34)ccn2)Cc2ccccc2C1 [Example 8, N-({2-[4-(7H-Pyrrolo[2,3-d]pyrimidin-4-yl)pyridin-2-yl]-2,3-dihydro-1H-inden-2-yl}methyl)acetamide] | 1000 to 3000 nM | > 3000 nM |  |  |
| NCC1(c2ccnc(-c3ncnc4[nH]ccc34)c2)Cc2ccccc2C1 [Example 4, 1-{2-[2-(7H-Pyrrolo[2,3-d]pyrimidin-4-yl)pyridin-4-yl]-2,3-dihydro-1H-inden-2-yl}methanamine] | 500 to 1000 nM | > 3000 nM | 500 to 1000 nM |  |
| CCOc1cn(-c2ccc(F)cc2C)nc1C(=O)Nc1ccc(Oc2ccnc3cc(OC)c(OC)cc23)c(F)c1 [LDC1267] |  |  |  | metastasis in tumor models [1]: blocks metastasis; activation of NK cells (NK cells): activates NK cells |
| CN(C)CC1(c2cccc(-c3ncnc4[nH]ccc34)c2)Cc2ccccc2C1 [Example 23, N,N-Dimethyl-1-{2-[3-(7H-pyrrolo[2,3-d]pyrimidin-4-yl)phenyl]-2,3-dihydro-1H-inden-2-yl}methanamine] | < 500 nM | > 3000 nM | < 500 nM |  |
| FCC1(c2cccc(-c3ncnc4[nH]ccc34)c2)Cc2ccccc2C1 [Example 19, 4-{3-[2-(Fluoromethyl)-2,3-dihydro-1H-inden-2-yl]phenyl}-7H-pyrrolo[2,3-d]pyrimidine] | > 3000 nM | > 3000 nM | > 3000 nM |  |
| NCC1(c2cc(-c3ncnc4[nH]ccc34)ccn2)Cc2ccccc2C1 [Example 3, 1-{2-[4-(7H-Pyrrolo[2,3-d]pyrimidin-4-yl)pyridin-2-yl]-2,3-dihydro-1H-inden-2-yl}methanamine] | < 500 nM | 1000 to 3000 nM | < 500 nM |  |
